Source: patent publication US20100015071A1, “Compositions for Improving Skin Conditions Comprising Alpha-Bisabolol as an Active Ingredient” (Biospectrum Inc., priority 2007, published 2010)

Experiments:
[1] = system: B16 mouse melanoma cells; assay: Inhibition of melanin production in B16 mouse melanoma cells; format: cell-based; details: 72 h, B16 F10 cells, 3 days, read-out: Inhibitory rate of melanin production (%)
Description: This cell pellets were dried at 60° C., 100 μl of 1M NaOH containing 10% DMSO was added to thereto, and intracellular melanin was obtained in incubator at 60° C.

[2] = system: brown guinea pigs; assay: Skin whitening effect in UV-pigmented brown guinea pigs; format: in vivo, guinea pig; details: for Whitening effects (ΔL): once or twice a day for 50 days, control ΔL 0.35
Description: A skin whitening effect of α-bisabolol was measured using brown guinea pigs (Charles River Laboratories, Inc.) pigmentation of which is known to increase upon exposure to ultraviolet light like human.
To induce pigmentation in the brown guinea pig by ultraviolet (UV), aluminum foil with square windows of 3×3 cm^2 was adhered to hair-removed abdominal skin of brown guinea pig, and then UV light was irradiated thereon with a SE lamp (wavelength 290-320 nm, Toshiba) (total irradiation energy=1350 mJ/cm^2). After UV irradiation, the aluminum foil was removed and samples (α-bisabolol or arbutin) were applied as the following method. Increased pigmentation was observed on 2-3 days after UV irradiation and reached a maximum after about 2 weeks. Following the period of time showing the maximum pigmentation, samples were applied.
The application of samples was performed once or twice a day for 50 days. The samples were dissolved or diluted in a solvent (Propylene glycol:ethanol:water 5:3:2) and applied by a swab. The control with only the solvent was applied to another site. The occurrence of cumulative irritation was also examined.
The degree of pigmentation of skin was determined using a chromameter (CR2002, MINOLTA, JP) to estimate the effects of applied samples. La*b* calorimetric system was used to classify color and L* value was used as standard in Example. The L* value was corrected using white board standard and was measured more than five times at one site. Pigmentation was evenly distributed. Skin color differences (ΔL*) between application starting point and application end point were obtained and used to evaluate effects of samples.
ΔL*=L* value on […] after application−L* value on application starting day Equation 1
ΔL* values were obtained for control and sample application to evaluate skin whitening effects.

[3] = Obesity inhibition test in ICR male mice (body weight); format: in vivo, mouse; details: single forced administration
Description: An obesity inhibition test was performed by the following method using well-known laboratory animals. The process for determining obesity-inhibitory activity was as follows: Crj: 7 week-old ICR male mice (obtained from Charles River Japan Ltd) weeks were preliminarily fed for 1 week, then classified into groups each having 7 animals and subjected to the test. The animals were fed under controlled conditions at a temperature of 23±1° C., and a humidity of 55±5% under illumination for 12 hours per day. They were fed with a feed Labo MR (manufactured by Nippon Nosan) and allowed to take water ad libitum. α-Bisabolol was present in the form of liposome (prepared with 5% lecithin) to the final concentration of either 0.1% or 1%. The concentration of each sample solution was adjusted so that 0.1 ml of the solution was given per 10 g body weight of mice. The doses employed were […] and 1 g/kg. To a control group, 5% lecithin emulsion was administered. After fasting the mice, the sample was administered once by force on the next day. During the test period over 2 weeks, the body weight and general conditions were monitored.

[4] = system: collagenase; assay: Collagenase activity in human fibroblast medium (Type 1 collagenase assay kit); format: cell-based; details: human fibroblasts, 24 hr
Description: (§1) Human fibroblasts (commercially available from pacific) were seeded into a 6-well plate (2×10^5 cells/well) and the well plate was incubated in a 5% CO2 incubator for 24 hr at 37° C. After 24 hr, the medium in each well was removed and cells were incubated with various concentrations of samples for 24 hr. Afterwards, the cell medium was collected and was used as samples.
For measuring the collagenase activity, antibodies against collagenase was used. The collagenase activity was measured using a Type 1 collagenase assay kit (Amersham Biosciences, RPN2629) and the absorbance values were obtain using an ELISA reader (Bio-Tek ELx808™ Series Ultra Microplate Reader, U.K). The measured average values were represented as mean±standard deviation.

[5] = target: T1, intracellular tyrosinase (Mus musculus, UniProt P11344); assay: Inhibition of intracellular tyrosinase activity in murine melanoma (B-16 F1) cells; details: B16-F1, read-out: Inhibitory rate of intracellular tyrosinase activity (%)
T1 sequence (P11344 19-533): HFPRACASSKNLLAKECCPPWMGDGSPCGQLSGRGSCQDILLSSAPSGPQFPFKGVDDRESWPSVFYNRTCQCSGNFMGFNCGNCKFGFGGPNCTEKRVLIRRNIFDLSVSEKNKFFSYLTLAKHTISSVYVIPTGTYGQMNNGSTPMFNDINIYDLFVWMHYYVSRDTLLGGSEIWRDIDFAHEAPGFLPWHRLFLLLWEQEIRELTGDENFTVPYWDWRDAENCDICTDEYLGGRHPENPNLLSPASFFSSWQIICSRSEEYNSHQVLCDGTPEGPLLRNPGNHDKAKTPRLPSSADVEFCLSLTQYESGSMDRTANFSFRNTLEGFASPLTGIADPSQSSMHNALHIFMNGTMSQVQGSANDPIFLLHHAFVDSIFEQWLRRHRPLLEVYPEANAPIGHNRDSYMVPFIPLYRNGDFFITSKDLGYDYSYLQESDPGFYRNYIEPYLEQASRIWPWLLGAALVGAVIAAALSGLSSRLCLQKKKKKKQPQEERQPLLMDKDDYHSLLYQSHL
Description: After measuring the inhibition of melanin production by α-bisabolol using B16 mouse melanoma cells (Korean Cell Line Bank), the measurement was compared with that for the inhibition of intracellular tyrosinase activities by arbutin, known as a melanin production inhibitor. Murine melanoma (B-16 F1) cells were seeded into each well of a 6-well plate (1×10^5 cells/well) in DMEM containing 10% FBS (fetal bovine serum) and the cells were cultured to about more than 80% adherence by incubating in a CO2 incubator under conditions of 37° C. and 5.0% CO2. After cultivation, the medium was removed and samples were replaced in medium diluted at suitable concentration, followed by incubating for 3 days under conditions of 37° C. and 5.0% CO2. […] The cells removing medium were washed with PBS (phosphate buffer saline) and treated with trypsin to collect cells. The number of the collected cells was calculated using hematocytometer, centrifuged at 5,000 to 10,000 rpm for 10 min and the supernatant was eliminated, thereby obtaining pellets. This cell pellets were lysated using lysis buffer, centrifuged at 12,000 rpm for 10 min and the supernatant was collected. Then, the cell solution was measured for absorbance at 492 nm using microplate reader and the activity of tyrosinase per cell constant number was estimated.

[6] = system: procollagen type I C-peptide (PICP); assay: Collagen synthesis (procollagen type I C-peptide) in human fibroblasts; format: cell-based; details: 24 hr
Description: as §1, with “samples. The potential of collagen synthesis was determined by measuring the amount of procollagen type I C-peptide (PICP) in cell medium using Procollagen Type I C-peptide EIA kit (MK101, Takara, Kyoto, Japan) in accordance with manufacturer's protocol.” for “samples.”

[7] = system: B16 mouse melanoma cells; assay: Cytotoxicity at the test concentrations in B16 melanoma cells; format: cell-based; details: 1 ppm, 5 ppm and 10 ppm
[8] = Anti-oxidation: removal of superoxide anion (SOD Assay Kit-WST); format: biochemical
Description: Superoxide dismutase (SOD) has been known as an anti-oxidation-catalyzing enzyme which converts superoxide anion into H2O2 and O2. This experiment evaluates anti-oxidation activity of samples by observing removal of superoxide anion generated by xanthine oxidase. The experiment was performed using the kit (SOD Assay Kit-WST) purchased from Dojindo (JP) in accordance with manufacture's protocol.

[9] = system: COX (cyclooxygenase); assay: COX inhibitory ability in LPS-treated THP-1 cells; format: cell-based, human; details: LPS alone = 100
Description: To determine whether α-bisabolol had anti-inflammatory effects, the experiment of COX (cyclooxygenase) inhibitory ability was carried out using human monocytic cell, THP-1 cell (Korean Cell Line Bank) according to conventional method. The COX activity was measured in accordance with Methods in Enzymology 43:9 (1994) published by F. J. Van de Ouderaaa and Muytenhek. THP-1 cell line was cultivated and aliquoted into 24-well plate. The incubation volume per well was adjusted to 500 μl, 2 μl of the sample compound, which dissolved in lipopolysaccahride (1 μg/ml, Sigma) and solvents described in the following Table respectively, was added and cultivated for 24-48 hr under the same condition. After 24-48 hr, calcium ionophore (Sigma) and [1-14C] arachidonic acid 1 μl (in EtOH, 0.1 μCi/ml, Sigma) were added to each well, and cultivated for 10 min under the same condition. Following the cultivation, citric acid was added to each well for adjusting to pH 3.5, shaked, each 500 μl of cultivation solution taken from the plate was aliquoted into micro centrifuge tube, 700 μl of ethylacetate was added to thereto, and the solution was shaking extracted for 10 min. 500 μl of ethylacetate layer was concentrated using speed vacuum dryer for 20 min, 20 μl of the residual was dissolved in ethylacetate, and the resultant was employed with authentic standard in TLC plate. The radioactive band was identified by authentic eicosanoid standards, the radioactivity of the identified band was measured using BAS 2000 bio-imaging analyzer (Fuji, JP) (Table 7).

[10] = system: Interleukin-2 promoter; assay: Interleukin-2 luciferase reporter activity in PHA-activated Jurkat cells; format: cell-based, human; details: 24 hr, PHA alone = 100
Description: Interleukin-2 promoter was reported to play an important role in the generation of cytokine related to inflammatory. The activity of interleukin-2 luciferase was measured using the following method: Human T lymphocytes cell line, 1×10^6 of Jurkat cell (Korean Cell Line Bank) were aliquoted into each well of 6-wells, IL-2 luciferase reporter plasmid DNA (Stratagene) was transfected using superfect transfection reagent (In vitrogen). 24 hr after transfection, PHA (Phytohemaglutinin, Sigma) (100 ng/ml) was treated to activate Jurkat cell and each samples was treated with varying concentration. Following 24 hr, the cell was collected and the luciferase activity was measured using luminometer (Berthold Technologies GmbH&Co.KG, Germany).

CC(C)=CCC[C@](C)(O)C1CC=C(C)CC1 (stereo in doubt) [α-Bisabolol, (2S)-6-methyl-2-[(1R)-4-methyl-1-cyclohex-3-enyl]hept-5-en-2ol]
inhibition at 1 ppm ([1]; 1 ppm): 24% | inhibition at 5 ppm [1]: 36% | inhibition at 10 ppm ([1]; 10 ppm): 49% | Whitening effects (ΔL) ([2]; 0.2 % topical): 0.42 | Whitening effects (ΔL) ([2]; 1.0 % topical): 0.67 | Cumulative irritation ([2]; topical on brown guinea pig skin for 50 days): no observation of cumulative irritation | Body weight ([3]; 0.1% in liposome, day 5, untreated 24): 24 g | Body weight ([3]; 0.1% in liposome, day 10, untreated 28): 24 g | Body weight ([3]; 0.1% in liposome, day 15, untreated 34): 26 g | Body weight ([3]; 1% in liposome, day 5, untreated 24): 23 g | Body weight ([3]; 1% in liposome, day 10, untreated 28): 24 g | Body weight ([3]; 1% in liposome, day 15, untreated 34): 26 g | Inhibition of collagenase (%) ([4]; 1 ppm): 12% | Inhibition of collagenase (%) ([4]; 5 ppm): 28% | Inhibition of collagenase (%) ([4]; 10 ppm): 43% | inhibition at 1 ppm [5]: 13% | inhibition at 5 ppm [5]: 38% | inhibition at 10 ppm [5]: 58% | Increase of collagen synthesis (%) ([6]; 1 ppm): 23% | Increase of collagen synthesis (%) ([6]; 5 ppm): 43% | Increase of collagen synthesis (%) ([6]; 10 ppm): 76% | Cytotoxicity [7]: did not show cytotoxicity | Removal rate of superoxide anion (%) ([8]; 1 ppm): 8% | Removal rate of superoxide anion (%) ([8]; 5 ppm): 18% | Removal rate of superoxide anion (%) ([8]; 10 ppm): 34% | COX activities (%) ([9]; 1 ppm with LPS (1 μg/ml)): 95% | COX activities (%) ([9]; 5 ppm with LPS (1 μg/ml)): 75% | COX activities (%) ([9]; 10 ppm with LPS (1 μg/ml)): 67% | IL-2 luciferase activities ([10]; 1 ppm with PHA (100 ng/ml)): 92 | IL-2 luciferase activities ([10]; 5 ppm with PHA (100 ng/ml)): 72 | IL-2 luciferase activities ([10]; 10 ppm with PHA (100 ng/ml)): 58

OC[C@H]1O[C@@H](Oc2ccc(O)cc2)[C@H](O)[C@@H](O)[C@@H]1O [Arbutin, reference compound]
inhibition at 5 ppm [1]: 22% | Whitening effects (ΔL) ([2]; 1.0 % topical): 0.54 | inhibition at 5 ppm [5]: 45%
